These are literature values, as cited in PMC4306626 (Journal of chromatography. B, Analytical technologies in …, 2015).

The structures appear in SMILES notation.

The conditions of the data set: cited from earlier work.

`CS(=O)(=O)CCNCc1ccc(-c2ccc3ncnc(Nc4ccc(OCc5cccc(F)c5)c(Cl)c4)c3c2)o1` [lapatinib]: the “systemic bioavailability (F)” value (10 mg/kg oral input) is given as 43 – 50%. In addition, where the note is “PO, 10 mg/kg, male mice”, the “time-to-peak (Tmax)” value was 30 min.
